One experiment concerns GBM LN18 cells. The experiment is described as follows: In vitro cell viability assay (Cell Titre Glo, 72 hours). The class given is cell-based. As to conditions: Homo sapiens, LN-18, read-out: LN18 pIC50 (converted). On the procedure: GBM LN18 cells were incubated with increasing concentrations of selected compounds of the invention for 72 hours prior to the measurement of ATP in metabolically viable cells with the Cell Titre® Glo Luminescent reagent. A 10-point concentration response curve up to a maximum concentration of 10 μM was tested.
The percent (%) effect i.e., inhibition at each concentration of compound was calculated based on, and relative to the amount of inhibition produced in the vehicle control and inhibited control wells contained within each plate.

Experiment [1] relates to pChk1(Ser296) in SW620 cells. The experiment in a line: pChk1(Ser296) sandwich ELISA, cell-based on-target kinase activity. The conditions noted are these: Homo sapiens, read-out: SW620 pIC50 (converted). As for the experimental part: ELISA assays were performed as per the manufacturer's protocol. […] Selected compounds of the invention were tested as a 8-point concentration response up to a maximum concentration of either 1 μM, 3 μM or 10 μM. The percent (%) effect i.e. inhibition at each concentration of compound was calculated based on, and relative to, the amount of inhibition produced in the vehicle control and inhibited control wells contained within each plate.

The target of another experiment is T1, human Chk1 kinase (Homo sapiens, UniProt O14757).
T1 sequence (O14757 1-476): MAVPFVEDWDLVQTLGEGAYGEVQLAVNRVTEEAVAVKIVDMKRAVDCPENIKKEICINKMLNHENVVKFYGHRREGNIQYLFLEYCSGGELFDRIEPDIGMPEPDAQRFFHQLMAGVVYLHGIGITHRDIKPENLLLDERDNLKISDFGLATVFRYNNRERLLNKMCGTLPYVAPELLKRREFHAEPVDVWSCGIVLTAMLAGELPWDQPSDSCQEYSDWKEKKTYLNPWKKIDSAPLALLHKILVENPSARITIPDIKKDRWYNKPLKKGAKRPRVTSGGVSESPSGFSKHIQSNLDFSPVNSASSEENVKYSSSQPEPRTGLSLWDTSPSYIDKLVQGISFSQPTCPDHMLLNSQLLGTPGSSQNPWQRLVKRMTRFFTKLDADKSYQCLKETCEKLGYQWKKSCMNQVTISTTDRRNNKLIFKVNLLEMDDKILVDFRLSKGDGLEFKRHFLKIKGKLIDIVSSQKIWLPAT
The experiment in a line: biochemical.

The next experiment concerns the target human Chk2 kinase (Homo sapiens, UniProt O96017). The experiment is described as follows: biochemical.
For the next experiment, the target named is T2, RSK1 (Homo sapiens, UniProt Q15418).
T2 construct: purchased Eurofins (KinaseProfiler service)
The experiment is described as follows: RSK1-4 kinase assay (Eurofins KinaseProfiler, radiometric): RSK1. The class given is biochemical. The conditions noted are these: approximately ATP Km. An excerpt:
(§1) The radiometric kinase activity assays were run at approximately the ATP Km for each kinase and the IC50 data is shown in Table 24.

For a further experiment, the target named is T3, RSK2 (Homo sapiens, UniProt P51812).
T3 construct: purchased Eurofins (KinaseProfiler service)
The experiment in a line: RSK1-4 kinase assay (Eurofins KinaseProfiler, radiometric): RSK2. It is filed as biochemical. The conditions noted are these: approximately ATP Km.
Description: as §1

The target of another experiment is T4, RSK3 (Homo sapiens, UniProt Q15349).
T4 construct: purchased Eurofins (KinaseProfiler service)
The experiment is described as follows: RSK1-4 kinase assay (Eurofins KinaseProfiler, radiometric): RSK3. The class given is biochemical. As to conditions: approximately ATP Km.
Description: as §1

The next experiment concerns the target T5, RSK4 (Homo sapiens, UniProt Q9UK32).
T5 construct: purchased Eurofins (KinaseProfiler service)
The experiment in a line: RSK1-4 kinase assay (Eurofins KinaseProfiler, radiometric): RSK4. The class given is biochemical. As to conditions: approximately ATP Km.
Description: as §1

The mark [2] stands for this setting: SW-620, 2 h, neocarzinostatin 7.5 μM.
The mark [3] stands for this setting: SW-620, neocarzinostatin 7.5 μM, 2 hours.

Consider 18 molecules from patent publication US20260132140A1, “IMIDAZOLYL-AMINO-PYRAZINE-CARBONITRILS AS CHK-1 INHIBITORS” (BenevolentAI Bio Limited, priority 2022, published 2026).

Read-outs that look alike come from different tables or passages of the source. A value given as a limit tells only on which side of the number the result lay.

T4 sequence (Q15349 whole entry): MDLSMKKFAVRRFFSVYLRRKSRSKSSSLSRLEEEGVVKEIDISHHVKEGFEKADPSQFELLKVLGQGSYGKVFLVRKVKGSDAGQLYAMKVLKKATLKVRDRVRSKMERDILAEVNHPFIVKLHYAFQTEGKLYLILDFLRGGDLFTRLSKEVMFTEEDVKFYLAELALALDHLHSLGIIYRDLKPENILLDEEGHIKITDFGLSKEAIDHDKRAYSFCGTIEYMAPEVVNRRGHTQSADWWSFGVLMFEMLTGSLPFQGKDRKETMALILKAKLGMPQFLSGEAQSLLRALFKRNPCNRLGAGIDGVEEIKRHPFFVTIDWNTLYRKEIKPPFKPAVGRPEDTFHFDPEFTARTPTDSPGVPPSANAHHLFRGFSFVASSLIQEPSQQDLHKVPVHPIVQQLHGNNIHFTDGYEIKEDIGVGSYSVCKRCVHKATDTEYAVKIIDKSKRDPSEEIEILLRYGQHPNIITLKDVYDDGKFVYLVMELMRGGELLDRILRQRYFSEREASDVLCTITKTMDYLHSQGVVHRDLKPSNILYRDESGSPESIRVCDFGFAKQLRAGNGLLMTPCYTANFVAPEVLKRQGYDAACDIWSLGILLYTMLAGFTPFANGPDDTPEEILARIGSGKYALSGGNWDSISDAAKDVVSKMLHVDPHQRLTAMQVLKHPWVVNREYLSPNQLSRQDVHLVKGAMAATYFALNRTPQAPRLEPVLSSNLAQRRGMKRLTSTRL
T2 sequence (Q15418 whole entry): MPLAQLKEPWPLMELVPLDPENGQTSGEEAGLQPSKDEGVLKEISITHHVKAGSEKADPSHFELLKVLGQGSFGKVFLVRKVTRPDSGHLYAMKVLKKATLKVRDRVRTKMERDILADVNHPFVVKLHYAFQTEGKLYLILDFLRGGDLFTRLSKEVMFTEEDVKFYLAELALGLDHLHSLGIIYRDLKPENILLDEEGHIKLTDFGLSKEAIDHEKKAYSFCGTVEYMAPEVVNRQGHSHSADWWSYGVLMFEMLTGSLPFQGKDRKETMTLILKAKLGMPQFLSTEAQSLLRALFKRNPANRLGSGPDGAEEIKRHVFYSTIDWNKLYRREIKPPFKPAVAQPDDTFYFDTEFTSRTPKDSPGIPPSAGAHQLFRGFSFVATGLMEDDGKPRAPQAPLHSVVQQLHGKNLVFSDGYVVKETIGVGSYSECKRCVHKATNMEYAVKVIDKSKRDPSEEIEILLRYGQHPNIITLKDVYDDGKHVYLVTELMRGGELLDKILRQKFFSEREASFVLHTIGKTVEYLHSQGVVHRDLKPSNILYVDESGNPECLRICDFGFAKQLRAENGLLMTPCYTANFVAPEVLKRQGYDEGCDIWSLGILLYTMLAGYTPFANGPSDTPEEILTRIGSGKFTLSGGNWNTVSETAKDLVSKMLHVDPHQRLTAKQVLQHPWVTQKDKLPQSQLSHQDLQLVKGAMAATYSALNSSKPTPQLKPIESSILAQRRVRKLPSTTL
T3 sequence (P51812 whole entry): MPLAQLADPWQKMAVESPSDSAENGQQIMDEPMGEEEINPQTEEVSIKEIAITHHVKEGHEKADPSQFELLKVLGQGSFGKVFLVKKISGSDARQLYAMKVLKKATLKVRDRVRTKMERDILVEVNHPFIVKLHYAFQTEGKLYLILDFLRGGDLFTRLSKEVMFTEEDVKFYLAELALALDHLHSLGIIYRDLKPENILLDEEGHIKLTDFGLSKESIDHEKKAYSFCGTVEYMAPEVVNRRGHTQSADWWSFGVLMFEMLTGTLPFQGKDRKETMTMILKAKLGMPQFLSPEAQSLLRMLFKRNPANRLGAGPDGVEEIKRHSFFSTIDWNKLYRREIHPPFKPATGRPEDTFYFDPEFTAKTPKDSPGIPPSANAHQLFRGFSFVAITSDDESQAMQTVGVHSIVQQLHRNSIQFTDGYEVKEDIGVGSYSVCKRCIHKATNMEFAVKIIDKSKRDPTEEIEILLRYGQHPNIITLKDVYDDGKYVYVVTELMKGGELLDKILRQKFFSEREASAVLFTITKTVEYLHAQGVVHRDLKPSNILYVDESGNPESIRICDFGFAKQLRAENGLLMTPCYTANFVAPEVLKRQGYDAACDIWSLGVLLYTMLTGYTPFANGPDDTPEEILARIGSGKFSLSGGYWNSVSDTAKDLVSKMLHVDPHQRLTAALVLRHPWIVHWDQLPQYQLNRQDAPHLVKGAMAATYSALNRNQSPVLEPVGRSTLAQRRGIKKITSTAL
human Chk2 kinase, sequence (O96017 whole entry): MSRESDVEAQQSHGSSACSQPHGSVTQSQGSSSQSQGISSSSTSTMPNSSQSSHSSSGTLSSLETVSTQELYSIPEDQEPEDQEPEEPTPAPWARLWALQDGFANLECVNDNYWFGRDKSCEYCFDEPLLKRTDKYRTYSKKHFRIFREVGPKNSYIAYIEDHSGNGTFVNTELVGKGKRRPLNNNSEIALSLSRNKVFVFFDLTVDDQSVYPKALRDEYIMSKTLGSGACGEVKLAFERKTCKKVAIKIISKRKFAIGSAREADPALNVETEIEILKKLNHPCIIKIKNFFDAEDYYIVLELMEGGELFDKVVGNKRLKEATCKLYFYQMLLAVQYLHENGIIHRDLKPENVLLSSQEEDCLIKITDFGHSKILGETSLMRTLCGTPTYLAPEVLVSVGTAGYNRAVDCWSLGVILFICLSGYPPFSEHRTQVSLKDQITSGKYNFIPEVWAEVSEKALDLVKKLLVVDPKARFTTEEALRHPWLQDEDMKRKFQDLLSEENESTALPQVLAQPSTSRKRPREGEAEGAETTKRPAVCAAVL
T5 sequence (Q9UK32 whole entry): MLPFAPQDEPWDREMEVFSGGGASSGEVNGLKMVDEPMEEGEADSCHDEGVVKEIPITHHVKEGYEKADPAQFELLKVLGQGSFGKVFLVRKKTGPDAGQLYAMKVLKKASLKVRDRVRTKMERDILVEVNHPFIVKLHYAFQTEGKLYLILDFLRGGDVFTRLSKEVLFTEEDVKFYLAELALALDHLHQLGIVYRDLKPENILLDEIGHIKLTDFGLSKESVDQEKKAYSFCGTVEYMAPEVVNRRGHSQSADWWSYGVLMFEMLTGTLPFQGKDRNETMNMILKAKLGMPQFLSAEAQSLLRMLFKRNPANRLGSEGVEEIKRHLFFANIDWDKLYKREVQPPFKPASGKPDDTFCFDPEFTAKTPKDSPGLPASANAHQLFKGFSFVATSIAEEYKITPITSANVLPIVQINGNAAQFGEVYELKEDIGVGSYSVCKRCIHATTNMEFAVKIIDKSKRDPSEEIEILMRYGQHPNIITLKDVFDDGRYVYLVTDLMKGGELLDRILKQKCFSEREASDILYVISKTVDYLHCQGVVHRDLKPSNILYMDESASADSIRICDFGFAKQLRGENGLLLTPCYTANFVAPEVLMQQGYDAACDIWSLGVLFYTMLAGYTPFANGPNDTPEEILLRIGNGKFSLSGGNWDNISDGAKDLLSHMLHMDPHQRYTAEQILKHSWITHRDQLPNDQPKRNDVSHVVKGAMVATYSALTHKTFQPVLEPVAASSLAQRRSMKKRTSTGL

As for `N#Cc1cnc(Nc2cn(-c3ccc(N4CCC(N5CCC5)C4)cc3)cn2)cn1` (single isomer, unassigned) [Example 113, 5-((1-(4-(3-(Azetidin-1-yl)pyrrolidin-1-yl)phenyl)-1H-imidazol-4-yl)amino)pyrazine-2-carbonitrile], the IC50 in the experiment on GBM LN18 cells was under 1000 nM; in experiment [1] (setting [2]) it was 1000 to 10000 nM; against human Chk1 kinase it was 10 to 31.6 nM; at human Chk2 kinase it was 10000 to 100000 nM.
On to `COc1cccc(OCCCN)c1-c1cc(Nc2cnc(C#N)cn2)n[nH]1` [Comparator Ex. 1, 5-((5-(2-(3-Aminopropoxy)-6-methoxyphenyl)-1H-pyrazol-3-yl)amino)pyrazine-2-carbonitrile, reference compound], for which the IC50 on RSK1 was 20 nM; against RSK2, 2 nM; against RSK3, 4 nM; at RSK4, 5 nM.
`COc1cc(N2CCN(C)CC2)ccc1-c1cc(Nc2cnc(C#N)cn2)n[nH]1` [Comparator Ex. 2, 5-((5-(2-Methoxy-4-(4-methylpiperazin-1-yl)phenyl)-1H-pyrazol-3-yl)amino)pyrazine-2-carbonitrile, reference compound]: the IC50 on RSK1 is 259 nM; on RSK2, 80 nM; on RSK3 it was 24 nM; at RSK4, 77 nM.
`CCNCc1ccc(-c2cc(Nc3cnc(C#N)cn3)n[nH]2)c(OC)c1` [Comparator Ex. 3, 5-((5-(4-((Ethylamino)methyl)-2-methoxyphenyl)-1H-pyrazol-3-yl)amino)pyrazine-2-carbonitrile, reference compound]: the IC50 against RSK1 amounted to 570 nM; against RSK2, 172 nM; at RSK3, 60 nM; against RSK4 it was 163 nM.
Turning to `CN1C[C@@H]2CN(c3ccc(-n4cnc(Nc5cnc(C#N)cn5)c4)cc3)C[C@@H]21` [Example 1, 5-((1-(4-((1R,5R)-6-Methyl-3,6-diazabicyclo[3.2.0]heptan-3-yl)phenyl)-1H-imidazol-4-yl)amino)pyrazine-2-carbonitrile], the IC50 is under 1000 nM with GBM LN18 cells, 1000 to 10000 nM in experiment [1] (setting [2]), under 10 nM at human Chk1 kinase and 1000 to 10000 nM on human Chk2 kinase.
On to `COc1cc(N2CC[C@@H](N(C)C)C2)ccc1-n1cnc(Nc2cnc(C#N)cn2)c1` [Example 47, (R)-5-((1-(4-(3-(Dimethylamino)pyrrolidin-1-yl)-2-methoxyphenyl)-1H-imidazol-4-yl)amino)pyrazine-2-carbonitrile], for which the IC50 (in the experiment on GBM LN18 cells; in experiment [1] (setting [3])) was under 1000 nM throughout.
Take `Cc1nc(-n2cnc(Nc3cnc(C#N)cn3)c2)ccc1N1CC[C@@H](N(C)C)C1` [Example 59, (R)-5-((1-(5-(3-(Dimethylamino)pyrrolidin-1-yl)-6-methylpyridin-2-yl)-1H-imidazol-4-yl)amino)pyrazine-2-carbonitrile]: the IC50 in the experiment on GBM LN18 cells is under 1000 nM; in experiment [1] (setting [2]), 1000 to 10000 nM; against human Chk1 kinase, under 10 nM; against human Chk2 kinase, 1000 to 10000 nM.
With `CN(C)[C@@H]1CCN(c2ccc(-n3cnc(Nc4cnc(C#N)cn4)c3)c(F)c2)C1` [Example 65, (R)-5-((1-(4-(3-(Dimethylamino)pyrrolidin-1-yl)-2-fluorophenyl)-1H-imidazol-4-yl)amino)pyrazine-2-carbonitrile], the figures for the IC50 (in the experiment with GBM LN18 cells; in experiment [1] (setting [3])) were under 1000 nM and 1000 to 10000 nM, respectively.
As for `C[C@H]1CN(c2ccc(-n3cnc(Nc4cnc(C#N)cn4)c3)cc2)C[C@@H]1N(C)C` [Example 73, 5-((1-(4-((3R,4S)-3-(Dimethylamino)-4-methylpyrrolidin-1-yl)phenyl)-1H-imidazol-4-yl)amino)pyrazine-2-carbonitrile], the IC50 is under 1000 nM with GBM LN18 cells, under 1000 nM in experiment [1] (setting [3]), under 10 nM on human Chk1 kinase and 1000 to 10000 nM against human Chk2 kinase.
Take `C[C@@H]1C[C@@H](N(C)C)CN1c1ccc(-n2cnc(Nc3cnc(C#N)cn3)c2)cc1` [Example 74, 5-((1-(4-((2R,4R)-4-(Dimethylamino)-2-methylpyrrolidin-1-yl)phenyl)-1H-imidazol-4-yl)amino)pyrazine-2-carbonitrile]: the IC50 (in the experiment on GBM LN18 cells; in experiment [1] (setting [3])) was under 1000 nM throughout.
Consider `CN(C)[C@]1(C)CCN(c2ccc(-n3cnc(Nc4cnc(C#N)cn4)c3)cc2)C1` [Example 78, (R)-5-((1-(4-(3-(Dimethylamino)-3-methylpyrrolidin-1-yl)phenyl)-1H-imidazol-4-yl)amino)pyrazine-2-carbonitrile], for which the IC50 is under 1000 nM in the experiment on GBM LN18 cells, under 1000 nM in experiment [1] (setting [3]), under 10 nM at human Chk1 kinase and 1000 to 10000 nM on human Chk2 kinase.
Take `[2H]C([2H])([2H])N([C@@H]1CCN(c2ccc(-n3cnc(Nc4cnc(C#N)cn4)c3)cc2)C1)C([2H])([2H])[2H]` [Example 84, (R)-5-((1-(4-(3-(Bis(methyl-d3)amino)pyrrolidin-1-yl)phenyl)-1H-imidazol-4-yl)amino)pyrazine-2-carbonitrile]: the IC50 with GBM LN18 cells was under 1000 nM; in experiment [1] (setting [3]), 1000 to 10000 nM; against human Chk1 kinase it was under 10 nM.
As to `C[C@@H]1C[C@@H](N(C)C)CN1c1ccc(-n2cnc(Nc3cnc(C#N)cn3)c2)nc1` [Example 85, 5-((1-(5-((2R,4R)-4-(Dimethylamino)-2-methylpyrrolidin-1-yl)pyridin-2-yl)-1H-imidazol-4-yl)amino)pyrazine-2-carbonitrile], the IC50 with GBM LN18 cells was under 1000 nM; in experiment [1] (setting [2]), under 1000 nM; on human Chk1 kinase, under 10 nM; against human Chk2 kinase, 1000 to 10000 nM.
Regarding `CN[C@H]1CN(c2ccc(-n3cnc(Nc4cnc(C#N)cn4)c3)cc2)C[C@H]1F` [Example 92, 5-((1-(4-((3R,4S)-3-Fluoro-4-(methylamino)pyrrolidin-1-yl)phenyl)-1H-imidazol-4-yl)amino)pyrazine-2-carbonitrile], the IC50 is under 1000 nM in the experiment on GBM LN18 cells, under 1000 nM in experiment [1] (setting [2]), under 10 nM against human Chk1 kinase and 1000 to 10000 nM against human Chk2 kinase.
For the molecule `N#Cc1cnc(Nc2cn(-c3ccc(N4CC[C@@H](N)C4)cc3)cn2)cn1` [Example 153, (R)-5-((1-(4-(3-Aminopyrrolidin-1-yl)phenyl)-1H-imidazol-4-yl)amino)pyrazine-2-carbonitrile], the IC50 with GBM LN18 cells is 1000 to 10000 nM; in experiment [1] (setting [2]), 1000 to 10000 nM; against human Chk1 kinase, 10 to 31.6 nM; on human Chk2 kinase, 1000 to 10000 nM.
As to `N#Cc1cnc(Nc2cn(-c3ccc(N4C[C@H](N)C5(CC5)C4)cc3)cn2)cn1` [Example 154, (R)-5-((1-(4-(7-Amino-5-azaspiro[2.4]heptan-5-yl)phenyl)-1H-imidazol-4-yl)amino)pyrazine-2-carbonitrile], the IC50 is under 1000 nM in the experiment with GBM LN18 cells, 1000 to 10000 nM in experiment [1] (setting [2]), under 10 nM against human Chk1 kinase and 1000 to 10000 nM at human Chk2 kinase.
With `C[C@@]1(N)CCN(c2ccc(-n3cnc(Nc4cnc(C#N)cn4)c3)cc2)C1` [Example 156, (R)-5-((1-(4-(3-Amino-3-methylpyrrolidin-1-yl)phenyl)-1H-imidazol-4-yl)amino)pyrazine-2-carbonitrile], the IC50 was under 1000 nM in the experiment with GBM LN18 cells, 1000 to 10000 nM in experiment [1] (setting [2]), 10 to 31.6 nM on human Chk1 kinase and 10000 to 100000 nM on human Chk2 kinase.
In the case of `C[C@@H]1C[C@@H](N)CN1c1ccc(-n2cnc(Nc3cnc(C#N)cn3)c2)cc1` [Example 165, 5-((1-(4-((2R,4R)-4-Amino-2-methylpyrrolidin-1-yl)phenyl)-1H-imidazol-4-yl)amino)pyrazine-2-carbonitrile], the IC50 in the experiment with GBM LN18 cells is under 1000 nM; on human Chk1 kinase, under 10 nM; against human Chk2 kinase, 1000 to 10000 nM.
